Data reported in patent US20120035265A1, “COMPOSITIONS, METHODS, AND DEVICES FOR THE TREATMENT OF DYSMENORRHEA” (MediciNova, Inc., priority 2010, published 2012).

What was measured:
[1] = tested on: uterine activity of anesthetized pregnant rats; test: Uterine motility of anesthetized pregnant rats (balloon method); type: in vivo, rat
Method: Rats were anesthetized with urethane, and experiments were conducted based on balloon method. Uterine activity and mean blood pressure of dam were led to a pressure amplifier via a pressure transducer. As for heart rate, pulse waves were led to tachometer. Recti-graphs were used for recording. The test substance, control substance, or positive control substance was administered intravenously and cumulatively every 15 minutes, while doses were increased gradually.

[2] = tested on: uterine muscle isolated from pregnant rats; test: Spontaneous contractions of uterine muscle isolated from pregnant rats (organ bath); type: cell-based; settings: pregnant rat uterine muscle, mean ± standard error, 10 samples
Method: The experimental operation of this study was as reported by T. Kawarabayashi et al.^1 After each SD-strain rat on Day 21 of pregnancy were exsanguinated to death, the uterus was isolated to prepare up to 8 myometrial strips (about 4 mm×10 mm) in the direction of the longitudinal muscle, with the adhesion to the placenta being avoided.
Each myometrial strip was suspended in an organ bath containing 10 mL of a Locke-Ringer solution at 37° C. (aerated with 95% O2+5% CO2 gas) with a load of about 1.0 g. After the amplitude and frequency of the muscular spontaneous contractions became stable, distilled water was added. Five minutes later, the test, control, or positive control substance was added cumulatively with intervals of 5 minutes. The myometrial contractile force was delivered to a strain pressure amplifier through a force displacement transducer and recorded on a Rectigraph.
Considering the sum of the uterine contraction during 5 minutes after the addition of distilled water as 100%, the response rate to each concentration of the test, control, or positive control substance was calculated from the sum of the uterine contraction after each was added. Variable points (peaks) with amplitude (tension) of 0.2 g or lower were excluded from analysis. Samples showing any of the following events were not used for the study or excluded from analysis.
Microsoft® Excel 2000 (Microsoft Corp.) was used to sum up and analyze data and prepare tables and figures. Using a concentration-response curve obtained for each sample (X axis: log value of the concentration of the drug added, Y axis: response rate), a negative log value (pD2) of the concentration that inhibited the uterine contraction by 50% (EC50) was calculated from a straight line that connects the 2 concentrations above and below 50%, and converted to EC50.

pregnant sheep = test: Oxytocin-induced uterine contractions, cardiovascular system and general metabolism of pregnant sheep and their fetuses; type: in vivo
Method: MN-221 (0.001, 0.003, 0.01, 0.03, 0.1 and 0.3 μg/kg/min) was weighed and dissolved in physiological saline. At 123-125 days of pregnancy, sheep were infused with oxytocin (1.0 mU/kg/min) to induce uterine contractions. One hour later, MN-221 was infused for 3 consecutive hours beginning at a dose of 0.001 μg/kg/min for 30 min and increasing stepwise every 30 min to 0.3 μg/kg/min in the MN-221 group (N=4). The control received saline instead (N=4).

[3] = tested on: uterine muscles isolated from pregnant rabbits; test: Spontaneous contractions of isolated uterine muscles of pregnant rabbits (organ bath); type: cell-based, rabbit
Method: (§1) Uterine muscles of pregnant rabbits were isolated, and experiments were conducted based on organ-bath method. After specimens of uterine muscles were suspended and spontaneous contractions was stabilized, the test substance, control substance or positive control substance was administered every 10 min, while doses were increased gradually. Efficacy of drugs was evaluated by comparing the sum of uterine contraction for 10 min before and after administration of drugs, defining the former as 100%.

[4] = tested on: uterine muscle isolated from pregnant rats; test: Oxytocin-induced contraction of uterine muscle isolated from pregnant rats; type: cell-based, rat; settings: Rattus norvegicus, contraction induced with 1 mU/mL of oxytocin, mean ± standard error of 10 samples
Method: (§2) After SD-strain rats on Day 17 of pregnancy were exsanguinated to death, the uterus was isolated to prepare up to 8 myometrial strips (about 4 mm×10 mm) per animal in the direction of the longitudinal muscle while avoiding the adhesion to the placenta. Each strip was suspended in an organ bath containing 10 mL of a modified Locke-Ringer solution at […] (aerated with 95% O2+5% CO2 gas) with a load of about 1.0 g. After the suspended sample became stable for static tension, 5 μg/mL of PG F2α or 1 mU/mL of oxytocin was added to induce contraction. After the sample was allowed to stand for at least 30 minutes to confirm stable rhythmic contraction for frequency and amplitude, the test, control, or positive control substance solution was added cumulatively at intervals of 5 minutes. After the treatment was completed, 1×10^−5 mol/L of forskolin was added to obtain maximal relaxation. The contractile force of the uterine sample was delivered via a force displacement transducer to a strain pressure amplifier and recorded on a Rectigraph.
(§3) Considering the sum of the uterine contraction for 5 minutes before treatment as 100%, the response rate to each concentration of the test, control, or positive control substance solution was calculated from the sum of uterine contraction after treatment for both PG F2α and oxytocin induced contraction. Then, the response rates obtained were used to prepare a concentration-response curve for each sample. The maximum relaxation obtained by adding forskolin was considered as a baseline. Variable points (peaks) with amplitude (tension) of […] or lower were excluded from analysis. Samples showing any of the following events were not used for the study or excluded from analysis.
(§4) Microsoft® Excel 2000 (Microsoft Corp.) was used to sum up and calculate data and prepare tables and figures. Using a concentration-response curve prepared for each sample (X axis: log value of the concentration of the substance added, Y axis: response rate), a negative log value (pEC50) of the concentration that inhibited the uterine contraction by 50% (EC50) was calculated from a straight line connecting the 2 concentrations just above and below 50%, and then converted to EC50 (unit: mol/L).

[5] = tested on: uterine muscles isolated from pregnant rabbits; test: Oxytocin-induced contractions of isolated uterine muscles of pregnant rabbits (organ bath); type: cell-based, rabbit
Method: as §1, with “oxytocin (1 mU/mL)-induced” for “spontaneous”

[6] = tested on: uterine muscle isolated from pregnant rats; test: PG F2α-induced contraction of uterine muscle isolated from pregnant rats; type: cell-based, rat; settings: Rattus norvegicus, contraction induced with 5 μg/mL of PG F2α, mean ± standard error of 10 samples
Method: as §2, §3, §4

[7] = inhibition of uterine motility, anesthetized pregnant rats
[8] = pregnant rabbit uterine muscles

CN(C)C(=O)COc1ccc2c(c1)C[C@@H](NC[C@H](O)c1ccc(O)c(CCO)c1)CC2 [MN-221, (−)-bis(2-{[(2S)-2-({(2R)-2-hydroxy-2-[4-hydroxy-3-(2-hydroxyethyl)phenyl]ethyl}amino)-1,2,3,4-tetrahydronaphthalen-7-yl]oxy}-N,N-dimethyl-acetamide) monosulfate]
inhibition of uterine motility ([1]; anesthetized pregnant rats, intravenous cumulative dosing): inhibited uterine motility dose-dependently
potency relative to HSR-81 [1, 7]: approximately 4 times
potency relative to ritodrine [1, 7]: approximately 400 times
potency relative to terbutaline [1, 7]: approximately 5.5 times
ED30 values ([1]; uterine motility, intravenous cumulative dosing every 15 minutes, urethane-anesthetized pregnant rats): 0.13 µg/kg/min
EC50 ([2]; read-out: EC50): 1.01 ± 0.27 nM
EC50 ([2]; read-out: pD2 (converted)): 0.692 nM
maternal heart rate, diastolic and mean blood pressure, base excess, blood K+, blood lactate, plasma glucose, insulin, non-esterified fatty acid levels, fetal plasma glucose and insulin levels (pregnant sheep; MN-221 group versus control (saline) group): Significant differences between the two groups
suppression of oxytocin-induced uterine contractions (pregnant sheep; at doses over 0.03 μg/kg/min, infusion, oxytocin 1.0 mU/kg/min, pregnant sheep): more than 90%
cardiovascular and metabolic side effects (pregnant sheep; pregnant sheep and fetuses, stepwise infusion 0.001 to 0.3 μg/kg/min): reduced cardiovascular and metabolic side effects
EC50 ([3]; Oryctolagus cuniculus, spontaneous contractions, pregnant rabbit uterine muscles, read-out: pD2 values (converted)): 1.91 nM
inhibitory effect against oxytocin-induced contractions of isolated uterine muscles ([3]; as worded in Example 6 (spontaneous contraction study)): demonstrated inhibitory effect
inhibitory effect against spontaneous contractions of uterine muscles, comparison [3, 8]: clearly stronger than that of HSR-81, ritodrine and terbutaline
EC50 ([4]; read-out: EC50): 2.25 ± 0.44 nM
EC50 ([4]; read-out: pEC50 (converted)): 1.86 nM
EC50 ([5]; Oryctolagus cuniculus, oxytocin (1 mU/mL)-induced contractions, pregnant rabbit uterine muscles, read-out: pD2 values (converted)): 2.51 nM
inhibitory effect against oxytocin-induced contractions of isolated uterine muscles ([5]; oxytocin (1 mU/mL)): demonstrated inhibitory effect
inhibitory effect against oxytocin-induced contractions of uterine muscles, comparison [5, 8]: clearly stronger than that of HSR-81, ritodrine and terbutaline
EC50 ([6]; read-out: EC50): 66.4 ± 19.3 nM
EC50 ([6]; read-out: pEC50 (converted)): 51.3 nM
